Assay results published in ChEMBL document CHEMBL5465560, “Selectivity Literature for EUbOPEN Chemogenomic Library” (2024).
Blank lines part the entries; values can stand above or below the compound they belong to.

Legend:
[1] = target: Epidermal growth factor receptor (Homo sapiens, UniProt P00533); assay: Selectivity interaction (Radiometric kinase assay (using 10 uM ATP)) EUB0000601a EGFR
[2] = target: Myosin light chain kinase, smooth muscle (Homo sapiens, UniProt Q15746); assay: Selectivity interaction (Kinase panel (Invitrogen)) EUB0000639a MYLK; conditions: at 200 nM
[3] = target: Phosphatidylinositol 4-kinase beta (Homo sapiens, UniProt Q9UBF8); assay: Selectivity interaction (ActivX KiNativ screen (kinase selectivity in THP-1 cell lysates)) EUB0000639a PI4KB; assay type: subcellular; conditions: lysate, at 0.04 µM
[4] = target: Calcium/calmodulin-dependent protein kinase type 1D (Homo sapiens) (UniProt Q8IU85); assay: Selectivity interaction (Kinase panel (Invitrogen)) EUB0000639a CAMK1D; conditions: at 200 nM
[5] = target: Bromodomain and WD repeat-containing protein 1 (Homo sapiens) (UniProt Q9NSI6); assay: Selectivity interaction (Bromodomain panel (DSF asssay)) EUB0000270b BRWD1
[6] = target: Tyrosine-protein kinase HCK (Homo sapiens) (UniProt P08631); assay: Selectivity interaction (KinomeScan (DiscoverX)) EUB0001079a HCK; conditions: at 1 µM
[7] = target: T1, Serine/threonine-protein kinase Nek3 (Homo sapiens) (UniProt P51956); assay: Selectivity interaction (KinomeScan (DiscoverX)) EUB0000092b NEK3; conditions: at 10 µM
T1 sequence (whole entry): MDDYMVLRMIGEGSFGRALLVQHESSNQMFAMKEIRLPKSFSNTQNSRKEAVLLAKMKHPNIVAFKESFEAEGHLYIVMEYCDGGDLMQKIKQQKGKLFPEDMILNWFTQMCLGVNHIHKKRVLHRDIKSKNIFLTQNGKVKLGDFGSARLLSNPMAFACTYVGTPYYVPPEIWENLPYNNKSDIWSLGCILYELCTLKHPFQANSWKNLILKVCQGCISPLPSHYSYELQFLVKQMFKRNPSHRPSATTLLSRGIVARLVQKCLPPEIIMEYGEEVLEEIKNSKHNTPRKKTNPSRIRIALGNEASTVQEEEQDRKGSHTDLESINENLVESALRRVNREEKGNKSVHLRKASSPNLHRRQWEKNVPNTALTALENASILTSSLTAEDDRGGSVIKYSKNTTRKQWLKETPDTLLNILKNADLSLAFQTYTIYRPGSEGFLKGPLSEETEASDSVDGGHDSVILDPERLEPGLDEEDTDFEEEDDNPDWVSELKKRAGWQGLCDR

[8] = target: Protein polybromo-1 (Homo sapiens) (UniProt Q86U86); assay: Selectivity interaction (Human bromodomain panel (DSF assay)) EUB0000233b PBRM1
[9] = target: cAMP-dependent protein kinase catalytic subunit alpha (Homo sapiens, UniProt P17612); assay: Selectivity interaction (Upstate Kinase Profiler service (Millipore)) EUB0000056c PRKACA; conditions: at 1 µM
[10] = target: Activin receptor type-2B (Homo sapiens) (UniProt Q13705); assay: Selectivity interaction (KinomeScan (DiscoverX)) EUB0000045b ACVR2B
[11] = target: Casein kinase I isoform gamma-2 (Homo sapiens) (UniProt P78368); assay: Selectivity interaction (KinomeScan (DiscoverX)) EUB0000618a CSNK1G2; conditions: at 10 µM
[12] = target: Ribosomal protein S6 kinase alpha-4 (Homo sapiens) (UniProt O75676); assay: Selectivity interaction (SelectScreen profiling (Invitrogen)) EUB0000607a RPS6KA4; conditions: at 2 µM
[13] = target: T2, MAP kinase-activated protein kinase 5 (Homo sapiens) (UniProt Q8IW41); assay: Selectivity interaction (KinomeScan (DiscoverX)) EUB0000607a MAPKAPK5; conditions: at 10 µM
T2 sequence (whole entry): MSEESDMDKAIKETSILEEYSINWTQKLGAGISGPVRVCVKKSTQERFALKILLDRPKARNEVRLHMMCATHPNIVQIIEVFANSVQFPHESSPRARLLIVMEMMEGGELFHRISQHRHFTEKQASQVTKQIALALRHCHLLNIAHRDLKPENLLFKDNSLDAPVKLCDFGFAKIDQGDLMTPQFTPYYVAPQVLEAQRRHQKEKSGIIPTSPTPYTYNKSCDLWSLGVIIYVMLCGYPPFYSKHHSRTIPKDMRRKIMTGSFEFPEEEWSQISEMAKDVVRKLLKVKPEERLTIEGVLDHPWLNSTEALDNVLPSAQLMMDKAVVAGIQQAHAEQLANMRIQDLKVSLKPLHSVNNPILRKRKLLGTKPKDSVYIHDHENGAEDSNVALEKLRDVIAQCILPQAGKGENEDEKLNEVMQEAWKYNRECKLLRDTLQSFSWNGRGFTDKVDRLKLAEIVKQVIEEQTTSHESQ

[14] = target: KCNQ1 (Homo sapiens, UniProt P51787); assay: Selectivity interaction (Panel of kinases, GPCRs, ion channels and transporters (enzymatic assay)) EUB0000223bCl KCNQ1
[15] = target: T3, Mitogen-activated protein kinase 13 (Homo sapiens) (UniProt O15264); assay: Selectivity interaction (Kinase panel (DSF assay)) EUB0001558a MAPK13
T3 sequence (whole entry): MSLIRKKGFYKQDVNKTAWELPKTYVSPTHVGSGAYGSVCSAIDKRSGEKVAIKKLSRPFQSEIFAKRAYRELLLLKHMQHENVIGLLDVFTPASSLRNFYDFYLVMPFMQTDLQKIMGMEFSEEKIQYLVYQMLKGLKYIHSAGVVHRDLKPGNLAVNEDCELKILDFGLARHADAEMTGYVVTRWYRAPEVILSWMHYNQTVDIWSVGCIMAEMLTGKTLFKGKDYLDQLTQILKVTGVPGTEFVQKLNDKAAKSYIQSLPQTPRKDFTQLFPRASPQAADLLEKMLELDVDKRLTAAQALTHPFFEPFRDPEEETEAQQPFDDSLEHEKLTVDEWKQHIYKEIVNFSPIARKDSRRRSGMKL

Sequence of Activin receptor type-2B (Homo sapiens) (Q13705 whole entry, canonical isoform): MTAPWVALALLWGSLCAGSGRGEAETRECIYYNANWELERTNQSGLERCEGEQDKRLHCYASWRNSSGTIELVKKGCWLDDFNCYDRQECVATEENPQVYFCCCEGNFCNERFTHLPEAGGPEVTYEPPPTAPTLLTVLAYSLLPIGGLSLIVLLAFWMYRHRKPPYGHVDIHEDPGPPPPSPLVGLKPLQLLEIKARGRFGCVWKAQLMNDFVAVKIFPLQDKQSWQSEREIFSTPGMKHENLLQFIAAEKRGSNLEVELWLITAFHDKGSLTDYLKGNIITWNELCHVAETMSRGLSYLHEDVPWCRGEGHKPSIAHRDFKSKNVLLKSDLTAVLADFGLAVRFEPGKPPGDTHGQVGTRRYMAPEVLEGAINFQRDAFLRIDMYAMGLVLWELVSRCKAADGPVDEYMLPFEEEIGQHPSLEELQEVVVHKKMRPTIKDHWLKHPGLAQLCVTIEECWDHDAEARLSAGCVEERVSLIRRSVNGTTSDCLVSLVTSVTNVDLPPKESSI
Sequence of Casein kinase I isoform gamma-2 (Homo sapiens) (P78368 whole entry, looked up, canonical isoform): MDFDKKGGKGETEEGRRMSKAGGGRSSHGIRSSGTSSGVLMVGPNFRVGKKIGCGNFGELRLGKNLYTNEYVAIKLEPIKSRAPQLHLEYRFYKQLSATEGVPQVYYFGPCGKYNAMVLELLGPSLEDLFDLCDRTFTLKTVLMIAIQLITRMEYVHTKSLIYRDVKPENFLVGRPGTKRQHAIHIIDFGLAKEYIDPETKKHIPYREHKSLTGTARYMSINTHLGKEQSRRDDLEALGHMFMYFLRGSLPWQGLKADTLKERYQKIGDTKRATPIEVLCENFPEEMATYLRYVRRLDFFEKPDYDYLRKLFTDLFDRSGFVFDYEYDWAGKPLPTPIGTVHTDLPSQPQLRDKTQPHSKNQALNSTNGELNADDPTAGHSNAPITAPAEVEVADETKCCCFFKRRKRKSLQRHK
Sequence of Phosphatidylinositol 4-kinase beta (Q9UBF8 2-816 limits assumed): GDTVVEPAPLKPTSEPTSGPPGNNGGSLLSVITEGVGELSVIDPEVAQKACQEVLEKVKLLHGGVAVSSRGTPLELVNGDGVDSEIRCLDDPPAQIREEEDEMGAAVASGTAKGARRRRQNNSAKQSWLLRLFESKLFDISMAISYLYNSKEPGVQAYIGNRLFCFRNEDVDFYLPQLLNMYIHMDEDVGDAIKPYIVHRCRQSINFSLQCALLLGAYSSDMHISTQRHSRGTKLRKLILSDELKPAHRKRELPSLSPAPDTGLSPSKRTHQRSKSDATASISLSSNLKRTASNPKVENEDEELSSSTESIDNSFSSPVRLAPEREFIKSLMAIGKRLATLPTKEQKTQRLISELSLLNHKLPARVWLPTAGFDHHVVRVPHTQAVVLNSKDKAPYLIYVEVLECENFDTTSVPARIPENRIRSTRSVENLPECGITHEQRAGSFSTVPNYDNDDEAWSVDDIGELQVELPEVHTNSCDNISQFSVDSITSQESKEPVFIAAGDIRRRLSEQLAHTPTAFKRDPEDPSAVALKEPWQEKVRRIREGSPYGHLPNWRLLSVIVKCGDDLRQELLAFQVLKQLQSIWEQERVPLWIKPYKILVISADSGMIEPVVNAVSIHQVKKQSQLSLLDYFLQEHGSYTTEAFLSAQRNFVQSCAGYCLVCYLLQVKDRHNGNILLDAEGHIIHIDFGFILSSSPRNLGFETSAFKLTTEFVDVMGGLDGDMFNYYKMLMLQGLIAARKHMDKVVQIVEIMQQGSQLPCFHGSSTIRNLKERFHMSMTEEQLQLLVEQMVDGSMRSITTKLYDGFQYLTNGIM
Sequence of Myosin light chain kinase, smooth muscle (Q15746 whole entry): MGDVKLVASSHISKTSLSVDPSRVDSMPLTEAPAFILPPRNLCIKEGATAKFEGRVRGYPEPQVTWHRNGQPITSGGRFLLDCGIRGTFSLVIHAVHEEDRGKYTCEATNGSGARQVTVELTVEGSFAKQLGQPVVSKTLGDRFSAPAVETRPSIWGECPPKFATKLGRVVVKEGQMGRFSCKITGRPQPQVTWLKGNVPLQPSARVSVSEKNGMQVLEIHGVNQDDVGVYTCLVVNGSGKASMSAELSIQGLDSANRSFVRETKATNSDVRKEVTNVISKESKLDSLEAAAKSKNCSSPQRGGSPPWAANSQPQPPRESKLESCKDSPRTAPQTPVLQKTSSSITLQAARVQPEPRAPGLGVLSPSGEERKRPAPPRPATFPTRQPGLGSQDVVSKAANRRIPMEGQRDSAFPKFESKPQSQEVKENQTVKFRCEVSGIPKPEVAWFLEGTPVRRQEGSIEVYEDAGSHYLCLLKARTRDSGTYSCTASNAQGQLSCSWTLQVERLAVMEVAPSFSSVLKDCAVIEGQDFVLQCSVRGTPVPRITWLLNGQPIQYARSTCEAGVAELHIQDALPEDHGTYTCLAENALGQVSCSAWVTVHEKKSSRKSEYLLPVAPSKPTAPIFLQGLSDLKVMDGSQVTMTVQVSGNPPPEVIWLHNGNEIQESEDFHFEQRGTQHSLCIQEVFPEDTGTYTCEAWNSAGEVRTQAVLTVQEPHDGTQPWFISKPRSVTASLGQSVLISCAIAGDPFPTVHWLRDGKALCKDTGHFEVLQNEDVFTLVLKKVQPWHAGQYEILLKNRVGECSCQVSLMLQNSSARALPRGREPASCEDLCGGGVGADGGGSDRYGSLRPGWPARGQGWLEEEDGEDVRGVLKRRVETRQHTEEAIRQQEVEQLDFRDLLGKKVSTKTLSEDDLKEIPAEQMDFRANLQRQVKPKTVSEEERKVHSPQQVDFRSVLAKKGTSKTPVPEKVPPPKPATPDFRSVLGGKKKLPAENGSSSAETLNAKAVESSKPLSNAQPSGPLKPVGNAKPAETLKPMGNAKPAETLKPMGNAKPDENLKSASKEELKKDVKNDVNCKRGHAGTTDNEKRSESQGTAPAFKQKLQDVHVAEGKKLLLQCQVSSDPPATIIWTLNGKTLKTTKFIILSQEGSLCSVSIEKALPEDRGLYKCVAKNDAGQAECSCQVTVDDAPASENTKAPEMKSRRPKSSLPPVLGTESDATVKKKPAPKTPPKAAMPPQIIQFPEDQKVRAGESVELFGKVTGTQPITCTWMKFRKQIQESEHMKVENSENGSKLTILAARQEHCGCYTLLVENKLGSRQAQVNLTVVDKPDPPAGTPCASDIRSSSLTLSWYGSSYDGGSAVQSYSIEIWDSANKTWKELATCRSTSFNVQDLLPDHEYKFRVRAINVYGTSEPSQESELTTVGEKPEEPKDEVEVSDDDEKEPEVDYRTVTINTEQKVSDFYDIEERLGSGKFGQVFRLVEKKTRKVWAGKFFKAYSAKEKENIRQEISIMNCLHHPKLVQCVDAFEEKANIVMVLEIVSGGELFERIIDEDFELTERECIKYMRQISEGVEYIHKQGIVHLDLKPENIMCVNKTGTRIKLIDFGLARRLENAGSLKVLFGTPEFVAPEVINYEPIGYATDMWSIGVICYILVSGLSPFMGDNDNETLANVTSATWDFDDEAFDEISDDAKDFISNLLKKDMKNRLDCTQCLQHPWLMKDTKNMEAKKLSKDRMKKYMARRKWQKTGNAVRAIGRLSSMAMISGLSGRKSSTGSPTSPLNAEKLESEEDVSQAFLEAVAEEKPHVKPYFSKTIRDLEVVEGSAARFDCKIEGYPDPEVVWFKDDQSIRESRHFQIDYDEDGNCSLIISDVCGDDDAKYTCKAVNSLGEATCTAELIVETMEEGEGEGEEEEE
Sequence of KCNQ1 (P51787 whole entry): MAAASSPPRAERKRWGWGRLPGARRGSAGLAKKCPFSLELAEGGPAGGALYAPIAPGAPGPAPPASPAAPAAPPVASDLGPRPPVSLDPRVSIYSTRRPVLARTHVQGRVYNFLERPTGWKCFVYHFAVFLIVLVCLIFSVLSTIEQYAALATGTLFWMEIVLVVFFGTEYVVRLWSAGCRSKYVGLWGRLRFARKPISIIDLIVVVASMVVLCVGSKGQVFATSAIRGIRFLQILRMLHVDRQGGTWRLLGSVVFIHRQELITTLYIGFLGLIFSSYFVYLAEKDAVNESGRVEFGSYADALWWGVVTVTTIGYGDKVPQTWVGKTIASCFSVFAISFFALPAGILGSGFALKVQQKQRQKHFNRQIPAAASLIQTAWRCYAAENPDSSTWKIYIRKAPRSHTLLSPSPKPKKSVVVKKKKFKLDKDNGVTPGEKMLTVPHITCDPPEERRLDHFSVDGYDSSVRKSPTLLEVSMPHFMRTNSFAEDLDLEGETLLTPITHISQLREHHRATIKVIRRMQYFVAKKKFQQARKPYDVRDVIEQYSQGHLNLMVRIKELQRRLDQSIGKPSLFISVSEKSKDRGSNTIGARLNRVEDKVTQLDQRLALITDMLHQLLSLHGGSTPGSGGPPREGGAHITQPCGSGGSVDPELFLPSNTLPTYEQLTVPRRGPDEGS
Sequence of Calcium/calmodulin-dependent protein kinase type 1D (Homo sapiens) (Q8IU85 whole entry, looked up): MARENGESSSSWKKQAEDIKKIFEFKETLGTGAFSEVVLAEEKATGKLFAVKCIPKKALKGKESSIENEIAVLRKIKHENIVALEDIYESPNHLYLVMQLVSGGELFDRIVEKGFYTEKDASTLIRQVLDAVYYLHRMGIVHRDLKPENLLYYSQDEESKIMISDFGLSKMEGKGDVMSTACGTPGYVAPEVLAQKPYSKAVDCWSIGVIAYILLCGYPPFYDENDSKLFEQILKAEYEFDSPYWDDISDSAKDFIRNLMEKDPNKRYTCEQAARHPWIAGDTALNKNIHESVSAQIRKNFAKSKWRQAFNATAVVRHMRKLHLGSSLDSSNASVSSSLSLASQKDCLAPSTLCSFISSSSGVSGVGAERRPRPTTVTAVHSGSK

- IC50 [1]: > 10 µM
Structure (SMILES): CCc1cc(Nc2nccc(-c3c(-c4ccc(OC)c(C(=O)Nc5c(F)cccc5F)c4)nc4ccccn34)n2)c(OC)cc1N1CCC(N2CCN(S(C)(=O)=O)CC2)CC1

- % of inhibition [2]: 8.89%
- % of inhibition [3]: -0.3%
- % of inhibition [4]: 2.36%
Structure (SMILES): CC[C@@H]1[C@H](F)C(=O)N[C@@H]1COc1nccc2cc(C(N)=O)c(OC)cc12 [ZIMLOVISERTIB]

- dTM [5]: -1.1 K
Structure (SMILES): Cc1cc(CN)cc(C)c1-c1ncn(C)c1-c1cncn1C

Structure (SMILES): Nc1cnc(N2CCc3cc(S(=O)(=O)Nc4c(F)cc(Cl)cc4F)cc(N4CCCC4=O)c32)nc1 [TP-020n]
- % of control [6]: 100%

Structure (SMILES): CCC(=O)N1CCN(c2ccc(-n3c(=O)ccc4cnc5ccc(-c6cnc7ccccc7c6)cc5c43)cc2C(F)(F)F)CC1
- % of control [7]: 100%

- dTM [8]: < 2 K
Structure (SMILES): CN(C)CCCOc1ccc(-c2cc(NCCCn3cccn3)nc(S(C)(=O)=O)n2)cc1

- % of inhibition [9]: 14%
Structure (SMILES): Cc1ccc(-c2ccc3c(ccc4sc5c(c43)NC[C@@H](C)NC5=O)n2)cn1

Structure (SMILES): C=CC(=O)Nc1cc(-n2c(=O)ccc3cnc4ccc(-c5ccc(NS(C)(=O)=O)cc5)cc4c32)ccc1C
- % of control ([10]; at 1 µM): 100%
- % of control ([10]; at 10 µM): 84%

Structure (SMILES): O[C@H]1CC[C@H](Nc2ncc3nc(Nc4c(F)cc(F)cc4F)n([C@H]4CCOC4)c3n2)CC1
- % of control [11]: 100%

Structure (SMILES): CNC(=O)Nc1ccc(-c2nc(N3CC4CCC(C3)O4)c3cnn(C4CCC5(CC4)OCCO5)c3n2)cc1
- % of inhibition [12]: 1%
- % of control [13]: 100%

Structure (SMILES): COc1cc(C(=O)N2CC[C@@H](O)[C@@H](N)C2)cc2nc(-c3cc4ccccc4n3CC3CC3)n(C)c12
- XC50 [14]: > 25.1 µM

Structure (SMILES): CC(C)(O)[C@H](F)CN1Cc2cc(NC(=O)c3cnn4cccnc34)c(N3CCOCC3)cc2C1=O
- dTM [15]: -0.3 K
